Laboratory results reported in US9573957B2 (Boehringer Ingelheim International GmbH, priority 2013, dated 2017).

What was measured:
human LTA4 hydrolase = human LTA4 hydrolase (Homo sapiens (Human), UniProt P09960); assay: LTA4H Enzyme assay (peptidase, Arg-AMC cleavage); type: biochemical; details: LTA4H Enzyme 1 nM, Arg-AMC substrate 50 μM, room temperature 1 h, fluorescence
Protocol: The compounds of the invention are assessed for the ability to interact with human LTA4 hydrolase in an enzymatic assay that measures the ability of the enzyme to cleave the peptide bond of arginyl-aminomethylcoumarin (Arg-AMC). LTA4H Enzyme (1 nM final), Arg-AMC substrate (50 μM final), and compound are combined in a reaction buffer (50 mM Tris-HCl (pH 7.5), 100 mM KCl, 0.5% bovine serum albumin) at room temperature for 1 h. The formation of product is assessed by measuring the fluorescence of aminomethylcoumarin product (excitation wavelength 380 nm/emission wavelength 460 nm).

[1] = test system: synthesis of LTB4 in human whole blood; assay: LTB4 production inhibition assay in human whole blood (HWB); type: cell-based; details: heparinized human whole blood, 15 min at 37° C., Calcimycin 20 μM 30 min, plasma LTB4 by HTRF
Protocol: The compounds of the invention are additionally tested in a human whole blood (HWB) assay to determine their ability to inhibit the synthesis of LTB4 in a cellular system. Compounds are combined with heparinized human whole blood and incubated for 15 minutes at 37° C. Calcimycin (20 μM final, prepared in phosphate-buffered saline, pH 7.4) is then added and the mixture is incubated for another 30 minutes at 37° C. The samples are centrifuged for 5 min at low speed (1500×g) and the plasma layer is removed. Plasma LTB4 concentrations are then measured using an antibody-based homogenous time-resolved fluorescence method (CisBio, Bedford, Mass.).

human LTA4 hydrolase, sequence (P09960 whole entry): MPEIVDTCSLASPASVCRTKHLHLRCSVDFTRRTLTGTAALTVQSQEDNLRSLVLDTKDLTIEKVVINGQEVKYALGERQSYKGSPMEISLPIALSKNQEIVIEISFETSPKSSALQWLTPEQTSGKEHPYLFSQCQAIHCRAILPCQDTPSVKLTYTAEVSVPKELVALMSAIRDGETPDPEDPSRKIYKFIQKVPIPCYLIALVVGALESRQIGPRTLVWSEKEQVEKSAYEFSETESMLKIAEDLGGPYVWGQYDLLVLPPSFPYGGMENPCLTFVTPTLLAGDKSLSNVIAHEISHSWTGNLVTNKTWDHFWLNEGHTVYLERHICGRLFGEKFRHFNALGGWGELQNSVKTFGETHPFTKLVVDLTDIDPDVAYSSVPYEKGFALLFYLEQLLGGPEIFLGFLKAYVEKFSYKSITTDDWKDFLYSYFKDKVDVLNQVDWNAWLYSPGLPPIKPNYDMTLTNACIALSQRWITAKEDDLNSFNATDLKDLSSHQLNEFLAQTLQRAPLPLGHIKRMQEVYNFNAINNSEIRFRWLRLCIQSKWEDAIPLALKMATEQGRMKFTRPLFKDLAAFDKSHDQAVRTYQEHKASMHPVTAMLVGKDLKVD

Row | SMILES | IC50 (human LTA4 hydrolase) [nM] | IC50 [1] [nM]
1 | OC1CN(Cc2ccc3cc(Oc4ccc(-c5ccn[nH]5)cn4)ccc3c2)C1 [Example 1, 1-{6-[5-(2H-Pyrazol-3-yl)-pyridin-2-yloxy]-naphthalen-2-ylmethyl}-azetidin-3-ol] | 0.43 | 140
2 | COCC(=O)N1CCN(Cc2ccc3cc(Oc4ncc(-c5ccn[nH]5)cn4)ccc3c2)CC1 [Example 24, 2-Methoxy-1-(4-{6-[5-(2H-pyrazol-3-yl)-pyrimidin-2-yloxy]-naphthalen-2-ylmethyl}-piperazin-1-yl)-ethanone] | 2 | 290
3 | CN(C(=O)CO)[C@@H]1CCN(Cc2ccc3cc(Oc4ccc(-c5ccn[nH]5)cn4)ccc3c2)C1 [Example 21, 2-Hydroxy-N-methyl-N-((R)-1-{6-[5-(2H-pyrazol-3-yl)-pyridin-2-yloxy]-naphthalen-2-ylmethyl}-pyrrolidin-3-yl)-acetamide] | 0.67 | 100
4 | CCS(=O)(=O)N1CCN(Cc2ccc3cc(Oc4ccc(-c5ccn[nH]5)cn4)ccc3n2)CC1 [Example 67, 2-(4-Ethanesulfonyl-piperazin-1-ylmethyl)-6-[5-(2H-pyrazol-3-yl)-pyridin-2-yloxy]-quinoline] | 2.9 | 550
5 | O=C(N1CC2CCC(C1)N2Cc1ccc2cc(Oc3ccc(-c4ccn[nH]4)cn3)ccc2n1)C1(O)CC1 [Example 56, (1-Hydroxy-cyclopropyl)-(8-{6-[5-(2H-pyrazol-3-yl)-pyridin-2-yloxy]-quinolin-2-ylmethyl}-3,8-diaza-bicyclo[3.2.1]oct-3-yl)-methanone] | 0.53 | 150
6 | NC(=O)C1CCN(Cc2ccc3cc(Oc4ncc(-c5ccn[nH]5)cn4)ccc3c2)CC1 [Example 27, 1-{6-[5-(2H-Pyrazol-3-yl)-pyrimidin-2-yloxy]-naphthalen-2-ylmethyl}-piperidine-4-carboxylic acid amide] | 1.4 | 200
7 | OC[C@H]1CCN(Cc2ccc3cc(Oc4ccc(-c5ccn[nH]5)cn4)ccc3c2)C1 [Example 18, ((S)-1-{6-[5-(2H-Pyrazol-3-yl)-pyridin-2-yloxy]-naphthalen-2-ylmethyl}-pyrrolidin-3-yl)-methanol] | 0.76 | 160
8 | O=C(CO)N1CCN(Cc2ccc3cc(Oc4ncc(-c5ccn[nH]5)cn4)ccc3c2)CC1 [Example 48, 2-Hydroxy-1-(4-{6-[5-(2H-pyrazol-3-yl)-pyrimidin-2-yloxy]-naphthalen-2-ylmethyl}-piperazin-1-yl)-ethanone] | 2.9 | 610
9 | CO[C@H](C)C(=O)N1CCN(CCc2coc3cc(Oc4ccc(-c5ccn[nH]5)cn4)ccc23)CC1 [Example 78, (R)-2-Methoxy-1-[4-(2-{6-[5-(2H-pyrazol-3-yl)-pyridin-2-yloxy]-benzofuran-3-yl}-ethyl)-piperazin-1-yl]-propan-1-one] | 0.92 | 190
10 | O=C([C@@H]1CCCO1)N1CC2CCC(C1)N2Cc1ccc2cc(Oc3ccc(-c4ccn[nH]4)cn3)ccc2n1 [Example 55, (8-{6-[5-(2H-Pyrazol-3-yl)-pyridin-2-yloxy]-quinolin-2-ylmethyl}-3,8-diaza-bicyclo[3.2.1]oct-3-yl)-(S)-tetrahydro-furan-2-yl-methanone] | 1.7 | 280
11 | CN(Cc1ccc2cc(Oc3ccc(-c4ccn[nH]4)cn3)ccc2c1)[C@@H]1CCN(C(=O)CO)C1 [Example 19, 2-Hydroxy-1-[(R)-3-(methyl-{6-[5-(2H-pyrazol-3-yl)-pyridin-2-yloxy]-naphthalen-2-ylmethyl}-amino)-pyrrolidin-1-yl]-ethanone] | 0.63 | 140
12 | CS(=O)(=O)N1CCN(CCC2COc3cc(Oc4ccc(-c5ccn[nH]5)cn4)ccc32)CC1 (centres unmarked) [Example 71, 1-Methanesulfonyl-4-(2-{6-[5-(2H-pyrazol-3-yl)-pyridin-2-yloxy]-2,3-dihydro-benzofuran-3-yl}-ethyl)-piperazine] | 1.7 | 490
13 | NC(=O)C1CN(Cc2ccc3cc(Oc4ccc(-c5ccn[nH]5)cn4)ccc3c2)C1 [Example 2, 1-{6-[5-(2H-Pyrazol-3-yl)-pyridin-2-yloxy]-naphthalen-2-ylmethyl}-azetidine-3-carboxylic acid amide] | 0.46 | 210
14 | CCC(=O)N1CCN(Cc2ccc3cc(Oc4ncc(-c5ccn[nH]5)cn4)ccc3c2)CC1 [Example 37, 1-(4-{6-[5-(2H-Pyrazol-3-yl)-pyrimidin-2-yloxy]-naphthalen-2-ylmethyl}-piperazin-1-yl)-propan-1-one] | 0.43 | 120
15 | CO[C@@H](C)C(=O)N1CCN(CCc2coc3cc(Oc4ccc(-c5ccn[nH]5)cn4)ccc23)CC1 [Example 75, (S)-2-Methoxy-1-[4-(2-{6-[5-(2H-pyrazol-3-yl)-pyridin-2-yloxy]-benzofuran-3-yl}-ethyl)-piperazin-1-yl]-propan-1-one] | 0.88 | 250
16 | O=C(C1CC1)N1CCN(Cc2ccc3cc(Oc4ncc(-c5ccn[nH]5)cn4)ccc3c2)CC1 [Example 40, Cyclopropyl-(4-{6-[5-(2H-pyrazol-3-yl)-pyrimidin-2-yloxy]-naphthalen-2-ylmethyl}-piperazin-1-yl)-methanone] | 1.8 | 340

Now from value to compound:

Row | IC50 (human LTA4 hydrolase) [nM] | IC50 [1] [nM] | SMILES
17 | 0.92 | 170 | CN(Cc1ccc2cc(Oc3ccc(-c4ccn[nH]4)cn3)ccc2n1)[C@@H]1CCN(C(=O)CO)C1 [Example 100, 2-Hydroxy-1-[(R)-3-(methyl-{6-[5-(2H-pyrazol-3-yl)-pyridin-2-yloxy]-quinolin-2-ylmethyl}-amino)-pyrrolidin-1-yl]-ethanone]
18 | 0.68 | 170 | O=C(CN1CCN(Cc2coc3cc(Oc4ccc(-c5ccn[nH]5)cn4)ccc23)CC1)N1CCCC1 [Example 111, 2-(4-{6-[5-(2H-Pyrazol-3-yl)-pyridin-2-yloxy]-benzofuran-3-ylmethyl}-piperazin-1-yl)-1-pyrrolidin-1-yl-ethanone]
19 | 2.3 | 360 | O=C(C1CCOCC1)N1CCN(Cc2ccc3cc(Oc4ccc(-c5ccn[nH]5)cn4)ccc3n2)CC1 [Example 131, (4-{6-[5-(2H-Pyrazol-3-yl)-pyridin-2-yloxy]-quinolin-2-ylmethyl}-piperazin-1-yl)-(tetrahydro-pyran-4-yl)-methanone]
20 | 1.8 | 580 | O=C(N1CCN(Cc2ccc3cc(Oc4ccc(-c5ccn[nH]5)cn4)ccc3n2)CC1)C1(O)CCC1 [Example 143, (1-Hydroxy-cyclobutyl)-(4-{6-[5-(2H-pyrazol-3-yl)-pyridin-2-yloxy]-quinolin-2-ylmethyl}-piperazin-1-yl)-methanone]
21 | 0.38 | 120 | CC(=O)NCC1CCN(Cc2coc3cc(Oc4ccc(-c5ccn[nH]5)cn4)ccc23)CC1 [Example 106, N-(1-{6-[5-(2H-Pyrazol-3-yl)-pyridin-2-yloxy]-benzofuran-3-ylmethyl}-piperidin-4-ylmethyl)-acetamide]
22 | 6 | 770 | O=C(C1C2COCC21)N1CCN(Cc2ccc3cc(Oc4ccc(-c5ccn[nH]5)cn4)ccc3n2)CC1 (centres unmarked) [Example 136, (3-Oxa-bicyclo[3.1.0]hex-6-yl)-(4-{6-[5-(2H-pyrazol-3-yl)-pyridin-2-yloxy]-quinolin-2-ylmethyl}-piperazin-1-yl)-methanone]
23 | 2.2 | 930 | C[C@@H](O)C(=O)N1CCN(CCC2COc3cc(Oc4ccc(-c5ccn[nH]5)cn4)ccc32)CC1 (stereo partly drawn) [Example 91, (R)-2-Hydroxy-1-[4-(2-{6-[5-(2H-pyrazol-3-yl)-pyridin-2-yloxy]-2,3-dihydro-benzofuran-3-yl}-ethyl)-piperazin-1-yl]-propan-1-one]
24 | 2.9 | 320 | O=C([C@H]1CCCO1)N1CCN(Cc2ccc3cc(Oc4ccc(-c5ccn[nH]5)cn4)ccc3n2)CC1 [Example 133, (4-{6-[5-(2H-Pyrazol-3-yl)-pyridin-2-yloxy]-quinolin-2-ylmethyl}-piperazin-1-yl)-(R)-tetrahydro-furan-2-yl-methanone]
25 | 1.2 | 410 | CO[C@@H](C)C(=O)N1CCN(CCC2COc3cc(Oc4ccc(-c5ccn[nH]5)cn4)ccc32)CC1 (stereo partly drawn) [Example 88, (S)-2-Methoxy-1-[4-(2-{6-[5-(2H-pyrazol-3-yl)-pyridin-2-yloxy]-2,3-dihydro-benzofuran-3-yl}-ethyl)-piperazin-1-yl]-propan-1-one]
26 | 0.56 | 150 | CN(C(=O)CO)[C@H]1CCN(Cc2coc3cc(Oc4ccc(-c5ccn[nH]5)cn4)ccc23)C1 [Example 114, 2-Hydroxy-N-methyl-N-((S)-1-{6-[5-(2H-pyrazol-3-yl)-pyridin-2-yloxy]-benzofuran-3-ylmethyl}-pyrrolidin-3-yl)-acetamide]
27 | 0.86 | 240 | C[C@H](O)C(=O)N1CCN(CCc2coc3cc(Oc4ccc(-c5ccn[nH]5)cn4)ccc23)CC1 [Example 83, (S)-2-Hydroxy-1-[4-(2-{6-[5-(2H-pyrazol-3-yl)-pyridin-2-yloxy]-benzofuran-3-yl}-ethyl)-piperazin-1-yl]-propan-1-one]
28 | 3.4 | 490 | CC1(O)CC(C(=O)N2CCN(Cc3ccc4cc(Oc5ccc(-c6ccn[nH]6)cn5)ccc4n3)CC2)C1 (centres unmarked) [Example 150, (3-Hydroxy-3-methyl-cyclobutyl)-(4-{6-[5-(2H-pyrazol-3-yl)-pyridin-2-yloxy]-quinolin-2-ylmethyl}-piperazin-1-yl)-methanone]
